Series [1] deals with Trypanosoma cruzi. Nature of the series: Antitrypanosomal activity against amastigote stage of Trypanosoma cruzi Dm28c infected in African green monkey Vero cells assessed as growth inhibition at 15 uM incubated 8 hrs post infection measured after 24 hrs relative to control. Type of series: functional. The settings on record: read-out: GI.
Series [2] in a line: Selectivity index, ratio of CC50 for African green monkey Vero cells to IC50 for epimastigote stage of Trypanosoma cruzi Dm28c. Type of series: functional.
The subject of series [3] is Trypanosoma cruzi. The series can be described thus: Antitrypanosomal activity against amastigote stage of Trypanosoma cruzi Dm28c infected in African green monkey Vero cells assessed as growth inhibition at 1 uM incubated 8 hrs post infection measured after 24 hrs relative to control. The settings on record: read-out: GI. Type of series: functional.
Series [4] in a line: Cytotoxicity against African green monkey Vero cells after 72 hrs by resazurin assay. Type of series: cell-based. Conditions: chlorocebus sabaeus.
Series [5] has as its system Trypanosoma cruzi. The series can be described thus: Antitrypanosomal activity against amastigote stage of Trypanosoma cruzi Dm28c infected in African green monkey Vero cells assessed as growth inhibition at 30 uM incubated 8 hrs post infection measured after 24 hrs relative to control. Type of series: functional. Conditions: read-out: GI.
Series [6] deals with Trypanosoma cruzi. Nature of the series: Antitrypanosomal activity against epimastigote stage of Trypanosoma cruzi Dm28c infected in African green monkey Vero cells after 72 hrs relative to untreated control. Type of series: functional, organism-based.
Series [7] deals with Cruzipain (Trypanosoma cruzi) (UniProt P25779). The series can be described thus: Inhibition of Trypanosoma cruzi cruzipain using Z-Phe-Arg-AMC as substrate at 0.3 uM incubated for 5 mins prior to substrate addition measured after 10 mins by fluorescence assay.
The target is the same in series [8]. The series can be described thus: Inhibition of Trypanosoma cruzi cruzipain using Z-Phe-Arg-AMC as substrate at 10 uM incubated for 5 mins prior to substrate addition measured after 10 mins by fluorescence assay.
Series [9] deals with Trypanosoma cruzi. Nature of the series: Antitrypanosomal activity against amastigote stage of Trypanosoma cruzi Dm28c infected in African green monkey Vero cells assessed as growth inhibition at IC50 incubated 8 hrs post infection measured after 24 hrs relative to control. Type of series: functional.
Series [10] deals with Trypanosoma cruzi. Nature of the series: Antitrypanosomal activity against amastigote stage of Trypanosoma cruzi Dm28c infected in African green monkey Vero cells assessed as growth inhibition at 2 times IC50 incubated 8 hrs post infection measured after 24 hrs relative to control. Type of series: functional.
Series [11] deals with Cruzipain (Trypanosoma cruzi) (UniProt P25779). Nature of the series: Inhibition of Trypanosoma cruzi cruzipain using Z-Phe-Arg-AMC as substrate at 2 uM incubated for 5 mins prior to substrate addition measured after 10 mins by fluorescence assay.
Series [12] concerns Trypanosoma cruzi. The series can be described thus: Antitrypanosomal activity against amastigote stage of Trypanosoma cruzi Dm28c infected in African green monkey Vero cells assessed as growth inhibition at 4 times IC50 incubated 8 hrs post infection measured after 24 hrs relative to control. Type of series: functional.
Series [13] addresses T1, Cruzipain (Trypanosoma cruzi, UniProt P25779). The series can be described thus: Non-competitive inhibition of Trypanosoma cruzi cruzipain using Z-Phe-Arg-AMC as substrate assessed as function of velocity after 30 mins.
Series [14] addresses Cruzipain (Trypanosoma cruzi) (UniProt P25779). The series can be described thus: Slow binding inhibition of Trypanosoma cruzi cruzipain using Z-Phe-Arg-AMC as substrate at 5 to 500 nM after 30 mins by fluorescence assay.
For series [15] the target is unchanged. The series can be described thus: Reversible inhibition of Trypanosoma cruzi cruzipain at 10 uM pre-incubated for 30 mins.
For series [16], the target named is T1, Cruzipain. The series can be described thus: Non-competitive inhibition of Trypanosoma cruzi cruzipain using Z-Phe-Arg-AMC as substrate assessed as function of Vmaxapp after 30 mins.

Active and inactive are the calls of the source. The rule behind the calls is not given here.

Chain of Cruzipain (Trypanosoma cruzi) (P25779 123-467 limits assumed): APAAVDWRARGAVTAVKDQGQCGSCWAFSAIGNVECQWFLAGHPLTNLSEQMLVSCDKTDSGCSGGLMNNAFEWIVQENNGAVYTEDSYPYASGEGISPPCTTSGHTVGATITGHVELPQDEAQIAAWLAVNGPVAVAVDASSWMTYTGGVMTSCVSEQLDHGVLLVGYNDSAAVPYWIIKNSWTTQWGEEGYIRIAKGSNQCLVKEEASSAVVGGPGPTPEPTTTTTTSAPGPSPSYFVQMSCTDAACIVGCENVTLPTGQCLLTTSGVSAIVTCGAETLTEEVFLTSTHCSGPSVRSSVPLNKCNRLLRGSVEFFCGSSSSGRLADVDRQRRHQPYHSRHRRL
T1 sequence (P25779 whole entry): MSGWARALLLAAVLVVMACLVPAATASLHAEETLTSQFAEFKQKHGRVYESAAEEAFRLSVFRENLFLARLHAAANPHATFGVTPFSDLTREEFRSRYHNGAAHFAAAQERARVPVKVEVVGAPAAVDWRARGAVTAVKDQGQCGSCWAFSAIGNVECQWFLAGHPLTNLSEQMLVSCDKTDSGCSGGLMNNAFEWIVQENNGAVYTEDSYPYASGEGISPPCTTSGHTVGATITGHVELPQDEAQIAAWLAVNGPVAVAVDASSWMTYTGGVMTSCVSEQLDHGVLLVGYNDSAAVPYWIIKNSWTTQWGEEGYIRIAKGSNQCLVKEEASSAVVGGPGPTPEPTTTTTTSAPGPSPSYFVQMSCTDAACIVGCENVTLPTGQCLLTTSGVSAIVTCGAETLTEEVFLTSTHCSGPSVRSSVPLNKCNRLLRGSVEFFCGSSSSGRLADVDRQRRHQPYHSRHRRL

`O=C(Cn1ccnc1[N+](=O)[O-])NCc1ccccc1` [BENZNIDAZOLE]: the inhibition of growth at 15 µM in the series on Trypanosoma cruzi [1] turned out to be 77%. Also, the “Ratio CC50/IC50” value in [2] is 25. Moreover, the inhibition of growth at 1 µM in the series with Trypanosoma cruzi [3] came out at 27%. In addition, the CC50 at 72 h in series [4] worked out at 309 µM. For the same molecule, the inhibition of growth at 30 µM with Trypanosoma cruzi [5] worked out at 85%. Moreover, the IC50 in the series with Trypanosoma cruzi [6] stood at 12.5 µM.
Turning to `NC(=[Se])N/N=C/c1ccc(Cl)c(Cl)c1`, the values for the inhibition in series [7], in [8] and in [11] were 57%, 99% and 96%, respectively. The “growth inhibition (GI)” value with Trypanosoma cruzi [9] worked out at 63%; in the series on Trypanosoma cruzi [10] it was 69%; with Trypanosoma cruzi [12], 72%. In addition, in series [2], the “Ratio CC50/IC50” value was 41. The molecule also registered a CC50 at 72 h in [4] of 95.1 µM. Further, the IC50 in the series with Trypanosoma cruzi [6] was determined as 2.3 µM.
`C/C(=N/NC(N)=S)c1cccc(Br)c1`: the inhibition amounted to 24% in [7], 80% in series [8] and 79% in series [11]. Moreover, the inhibition constant Ki on Cruzipain [13] came to 0.142 µM.
`NC(=[Se])N/N=C/c1cccc(Br)c1`: the inhibition in series [7] amounted to 40%; in series [8], 93%; in series [11] it was 93%. Further, the “Ratio CC50/IC50” value in [2] amounted to 29. Besides, in [4], the CC50 at 72 h came to 172 µM. Also, the IC50 with Trypanosoma cruzi [6] came out at 5.9 µM.
For the molecule `NC(=[Se])NN=C(c1cccc(Br)c1)c1cccc(Br)c1`, the inhibition amounted to 90% in series [7], 99% in series [8] and 98% in series [11]. Further, the inhibition entry in [14] is “Active”. Moreover, the inhibition constant (Ki) on Cruzipain [13] stood at 0.0133 µM. Further, the “Ratio CC50/IC50” value in [2] is given as 14. Besides, in series [4], it took 71.2 µM to reach half-maximal cytotoxicity (CC50 at 72 h). This molecule had an IC50 in the series with Trypanosoma cruzi [6] of 5.2 µM.
On to `C/C(=N\NC(N)=[Se])c1cccc(Br)c1`, for which the inhibition is 81% in series [7], 98% in series [8] and 87% in series [11]. Moreover, the inhibition result in [14] and in series [15] was “Active” in each case. Moreover, the “growth inhibition (GI)” value in the series with Trypanosoma cruzi [9] stood at 76%; in the series on Trypanosoma cruzi [10], 77%; in the series with Trypanosoma cruzi [12], 78%. For the same molecule, on Cruzipain [13], the Ki was determined as 0.0297 µM. Also, the “Ratio CC50/IC50” value in series [2] is listed as 39. The same molecule displayed a CC50 at 72 h in series [4] of 46.4 µM. In the series on Trypanosoma cruzi [6], this molecule had an IC50 of 1.2 µM.
In the case of `NC(=[Se])N/N=C/c1cccc(C(F)(F)F)c1`, the inhibition worked out at 24% in [7], 91% in [8] and 88% in [11]. For the same molecule, the “growth inhibition (GI)” value turned out to be 34% with Trypanosoma cruzi [9], 70% in the series with Trypanosoma cruzi [10] and 74% in the series on Trypanosoma cruzi [12]. Further, in series [2], the “Ratio CC50/IC50” value was 44. Also, the 50% cytotoxic concentration (CC50) at 72 h in [4] amounted to 167 µM. The molecule also yielded an IC50 in the series with Trypanosoma cruzi [6] of 3.8 µM.
Regarding `CCCC/C(=N/NC(N)=[Se])c1ccc(Cl)c(Cl)c1`, the inhibition in series [7] worked out at 95%; in series [8], 100%; in series [11] it was 98%. Further, the inhibition entry in [14] is “Active”. Also, the Ki came out at 0.0064 µM at Cruzipain [16] and 0.0037 µM at Cruzipain [13]. Moreover, the “growth inhibition (GI)” value in the series on Trypanosoma cruzi [9] is listed as 66%; with Trypanosoma cruzi [10], 73%; in the series with Trypanosoma cruzi [12], 74%. Also, in [2], the “Ratio CC50/IC50” value stood at 25. Besides, the cytotoxic concentration (CC50) at 72 h in series [4] came out at 81.8 µM. The molecule also gave an IC50 in the series with Trypanosoma cruzi [6] of 3.2 µM.

The values are drawn from ChEMBL document CHEMBL3217446, “Selenosemicarbazones as potent cruzipain inhibitors and their antiparasitic properties against Trypanosoma cruzi” (Medchemcomm, 2012).
